# Measurements published in US6573300B2, “Hydroxyurea treatment for spinal muscular atrophy” (China Medical College Hospital, priority 2001, dated 2003).
# Columns and labels:
# SMA-like mice = experiment: Treatment of types 2 and 3 SMA-like mice (hSMN2 Smn-/-) via drinking water; format: in vivo, mouse
# Method: To generate hSMN2 Smn^−/− mice, hSMN2 Smn^+/− mice were crossed to Smn^+/− mice. Progeny lacking the murine SMN locus were identified by genotyping. The presence of the hSMN2 transgene was also confirmed.
# The effect of hydroxyurea on the symptoms of SMA-like mice were investigated. Hydroxyurea was administered to ten SMA-like mice with type 2 symptoms and ten SMA-like mice with type 3 symptoms. These mice were identified at birth by genotype and phenotype. Hydroxyurea was administered to the SMA-like mice as 1 mg/ml to 2 mg/ml solution available ad libitum in their drinking water. The amount of hydroxyurea taken by SMA-like mice was estimated to be approximate 5-10 mg/day. The survival time of hydroxyurea-treated type 2 SMA-like mice was longer, about 4 to 5 days longer on average, than untreated mice.
# The effect of hydroxyurea administration on the tail phenotype of SMA-like mice was also monitored. The tails of untreated types 2 and 3 SMA-like mice have decreased diameter of muscle fibers, atrophy of muscle bundles, group atrophy and subcutaneous edema (Hsieh-Li et al. (2000) supra).
# [1] = test system: exon 7-containing SMN protein; experiment: Western-blot analysis (H2 and H7 antibodies) of SMN protein in SMA lymphoid cell lines; format: cell-based, human
# Description: Western-blot analysis. Rabbits were immunized with synthetic peptides containing either human SMN amino acids 279-288 from exon 7 or amino acids 72-84 from exon 2. Specific antibodies (H7 and H2 respectively) were purified from rabbit crude sera with an EAH-sepharose 4B column (Pharmacia) according to the manufacturer's instructions.
# Protein samples, prepared from treated and untreated SMA lymphoid cells, were loaded on a 5% polyacrylamide stacking gel above a 12% separating gel, and the gel was run with a discontinuous buffer using Laemmli's method. After electrophoresis, proteins were transferred electrophoretically to polyvinyl difluoride membranes (Millipore Corp., Marlborough, Mass., USA). After the transfer, the membranes were blocked in TBST (50 mM Tris.HCl, pH 7.5, 150 mM NaCl, 0.05% Tween 20) containing 4% BSA (bovine serum albumin) for 2 hours at room temperature. Blots were incubated with a 1:800 dilution of anti-SMN exon 2 (H2) or anti-SMN exon 7 (H7) antibody in TBST for 2 hours at room temperature. […] The secondary antibody was detected with a 1.5% solution of 5-bromo-4-chloro-3-indoyl phosphate and 3% nitro blue tetrazolium in a developing buffer (100 mM NaCl, 5 mM MgCl2, 100 mM Tris.HCl, pH 9.5).
# [2] = absorbed from the gastrointestinal tract; cited from earlier work
# human SMA patients = experiment: Treatment of human SMA patients, oral; format: in vivo
structure (smiles),measurement,setting,value
NC(=O)NO [hydroxyurea],tail phenotype,"SMA-like mice; most of types 2 and 3 SMA-like mice, after treatment",nearly normal phenotype
same,frequency of chronic necrosis originating at the tip of the tail,"SMA-like mice; treated SMA-like mice, 50% for untreated",2%
same,"exon 7-containing SMN protein levels in multiple tissues, including spinal cord motor neurons","SMA-like mice; western blot and immunohistochemical studies, treated SMA-like mice",elevated
same,intact SMN protein in cytosolic and nuclear fractions,[1]; after 3 hours stimulation with 5 ng/ml to 500 μg/ml,increase
same,levels of exon 7-containing SMN protein,"[1]; lymphoid cell lines from different types of SMA patients, varying amounts, vs untreated controls",increase
same,time to enter the serum after ingestion,[2],≤ 2 h
same,full-length SMN mRNA transcript in peripheral mononuclear cells,"human SMA patients; SMA patients with SMN1 deletion, oral 15 to 25 mg/kg/day",elevated
same,walking gait,"human SMA patients; one type II patient, improved to a type III phenotype",improved
same,clinical symptoms of all three patients,human SMA patients; oral 15 to 25 mg/kg/day,improved
same,muscle strength,human SMA patients; other type II patient,improved muscle strength
same,respirator dependence,"human SMA patients; type I patient, on respirator before treatment",respirator free
